Several values for one entry are separate records, joined by “and”; a condition that tells them apart may be missing. Equal entries are not always repeated.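 48-hour exposure; five concentrations; linearly interpolated endpoints. At the GI50, growth is halved. At the TGI there is no net growth.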
How the values were obtained:
Experiment in all cases: NCI anticancer screen, dose series, 48 h
786-0 renal = system: 786-0 renal
A549 NSCLC = system: A549 NSCLC
CAKI-1 renal = system: CAKI-1 renal
HOP-92 NSCLC = system: HOP-92 NSCLC
HT29 colon = system: HT29 colon
LOX IMVI melanoma = system: LOX IMVI melanoma
NCI-H226 lung = system: NCI-H226 lung
T-47D breast = system: T-47D breast
TK-10 renal = system: TK-10 renal
UACC-257 melanoma = system: UACC-257 melanoma
UO-31 renal = system: UO-31 renal

Row | Compound | TGI (786-0 renal) | TGI (A549 NSCLC) | TGI (CAKI-1 renal) | TGI (HOP-92 NSCLC) | TGI (HT29 colon) [µM] | TGI (LOX IMVI melanoma) [µM] | TGI (NCI-H226 lung) [µM] | TGI (T-47D breast) | TGI (TK-10 renal) | TGI (UACC-257 melanoma) [µM] | TGI (UO-31 renal) | GI50 (TK-10 renal) [µM] | GI50 (CAKI-1 renal) | GI50 (HOP-92 NSCLC) [µM] | GI50 (LOX IMVI melanoma) | GI50 (NCI-H226 lung) | GI50 (T-47D breast) [µM]
1 | CCOC(=O)c1c(NC(=O)c2ccccc2)c(C#N)c2n1CCCCC2 | > 100 µM | > 100 µM | > 100 µM | > 100 µM | > 100 | > 100 | > 100 | > 100 µM | > 100 µM | > 100 | > 100 µM | – | – | – | – | – | –
2 | COC(=O)[C@@H]1CO[C@H](C(C)(C)C)N1C(=O)N1C=CC(=O)C[C@H]1C | > 100 µM | > 100 µM | > 100 µM | > 100 µM | > 100 | > 100 | > 100 | > 100 µM | > 100 µM | > 100 | > 100 µM | – | – | – | – | – | –
3 | Cc1c(C)c(S(=O)(=O)N(CCCCN)OCCCN)c(C)c2c1OC(C)(C)CC2 | 31.9 µM | 56.3 µM | > 100 µM | 80.6 µM | 40.4 | 40.4 | 30.1 | > 100 µM | 37.8 µM | 61.4 | 43 µM | – | – | – | – | – | –
4 | COc1cc2nc(Cl)nc(NS(=O)(=O)c3cc4ccccc4s3)c2cc1OC | > 100 µM | > 100 µM | > 100 µM | 46.8 µM | 88.9 | 59.5 | > 100 | 56.7 µM | > 100 µM | > 100 | 33.3 µM | – | – | – | – | – | –
5 | NC1=NC2(COC(c3ccccc3)(c3ccccc3)c3ccccc3)OC(COC(c3ccccc3)(c3ccccc3)c3ccccc3)C(O)C2O1 (stereo not drawn) | > 100 µM | > 100 µM | > 100 µM | > 100 µM | > 100 | > 100 | > 100 | > 100 µM | > 100 µM | > 100 | > 100 µM | – | – | – | – | – | –
6 | N#Cc1ccccc1OCCOc1ccccc1C#N | > 100 µM | > 100 µM | > 100 µM | > 100 µM | > 100 | > 100 | > 100 | > 100 µM | > 100 µM | > 100 | > 100 µM | – | – | – | – | – | –
7 | O=c1[nH]c(N/N=C\C(O)C(O)C(O)C(O)CO)nc2ccccc12 (stereo not drawn) | > 100 µM | > 100 µM | > 100 µM | > 100 µM | > 100 | > 100 | > 100 | > 100 µM | > 100 µM | > 100 | > 100 µM | – | – | – | – | – | –
8 | [B]C(=O)NC(CC(C)C)C(=O)NCC(=O)NC1c2ccsc2C(=O)C1O (stereo not drawn) (tested in a mixture with another compound) | > 100 µM | > 100 µM | > 100 µM | > 100 µM | > 100 | > 100 | > 100 | > 100 µM | > 100 µM | > 100 | > 100 µM | – | – | – | – | – | –
9 | COC1(OC)CCc2c(sc3ncnc(Nc4cccc(Br)c4)c23)C1 | > 100 µM | > 100 µM | > 100 µM | > 100 µM | 45.1 | > 100 | > 100 | 65.6 µM | > 100 µM | > 100 | > 100 µM | – | – | – | – | – | –
10 | c1cc(-c2ccc(-c3ccsc3)s2)cs1 | > 100 µM | 64.5 µM | > 100 µM | > 100 µM | > 100 | > 100 | 98.7 | > 100 µM | > 100 µM | > 100 | 98.4 µM | – | – | – | – | – | –
11 | COC(=O)[C@H](Cc1ccccc1)NC(=O)c1ccc(CNC(=O)/C=C/c2csc(-c3ccccc3)n2)cc1 | 21 µM | > 72.2 µM | > 28.7 µM | 9.88 µM | 43.1 | > 52.8 | > 100 | 7.12 µM | 45.4 µM | 7.72 | 27.3 µM | – | – | – | – | – | –
12 | CCN1/C(=C/C#C/C(C)=C\c2sc3ccc(Cl)cc3[n+]2CC)Sc2ccc(Cl)cc21 | 15.1 µM | 22 µM | 7.13 µM | 5.52 µM | 14 | 14.6 | 21.9 | 17.6 µM | > 100 µM | 22 | 14.5 µM | – | – | – | – | – | –
13 | CSC(=O)/C=C1\SS/C(=C\C(=O)SC)S1 | 4.03 µM | 19.6 µM | 4.25 µM | 7.87 µM | 7.03 | 3.09 | 3.41 | 20.6 µM | 15.5 µM | 11.3 | 6.89 µM | – | – | – | – | – | –
14 | COC1(OC)c2occc2C(=N)c2ccc(=O)oc21 | > 100 µM | > 100 µM | > 100 µM | > 100 µM | > 100 | > 100 | > 100 | > 100 µM | > 100 µM | > 100 | > 100 µM | – | – | – | – | – | –
15 | S=C1Cc2c(-c3ccccc3)cc(-c3cccc(Cl)c3)nc2-c2ccccc2N1 | 2.21 µM | 22.5 µM | 9.23 µM | 5.12 µM | 11.5 | 13.7 | 19.4 | 21.6 µM | 1.9 µM | 35 | 16.9 µM | 0.436 | – | – | – | – | –
16 | C[C@H]1CC[C@@]2(OC1)O[C@H]1C[C@H]3[C@@H]4CC[C@@H]5C[C@@H](OC6OC(CO)C(O)C(O)C6OC6OC(CO)C(O)C(O)C6O)CC[C@]5(C)[C@H]4CC[C@]3(C)[C@H]1[C@@H]2C (stereo partly drawn) | 3.69 µM | 3.69 µM | 3.44 µM | 4.12 µM | 3.68 | 3.75 | 4.2 | 3.85 µM | 3.61 µM | 3.86 | 3.67 µM | – | – | – | – | – | –
17 | COc1cc([C@@H]2c3cc4c(cc3[C@@H](Nc3ccc(NC(=O)c5cc([N+](=O)[O-])cn5C)cc3)[C@H]3COC(=O)[C@H]23)OCO4)cc(OC)c1O | 0.29 µM and 0.261 µM | 1.31 µM and 0.309 µM | 0.204 µM and 0.338 µM | 39.9 µM and 19.7 µM | 1.33 | – | 0.29 | 28.8 µM and > 24.4 µM | 6.15 µM and 2.95 µM | > 65.5 | 0.841 µM and 0.825 µM | – | 0.0214 µM and 0.0725 µM | 0.0549 | 0.111 µM and 0.0268 µM | 0.179 µM and 0.0249 µM | 0.0115
18 | O=c1cc(Nc2cccc(O)c2)[nH]c(=O)[nH]1 | > 100 µM | > 100 µM | > 100 µM | > 100 µM | > 100 | > 100 | > 100 | > 100 µM | > 100 µM | > 100 | > 100 µM | – | – | – | – | – | –

— PubChem BioAssay (NCI)
